From ChEMBL document CHEMBL4145520, “Small-molecule Mcl-1 inhibitors: Emerging anti-tumor agents” (Eur J Med Chem, 2018)
Values belong to the compound of their own block, whether it stands above or below them.

Legend:
[1] = Induction of apoptosis in human MOLP8 cells assessed as caspase 3/7 activation after 2 hrs by caspase-Glo 3/7 assay; type: functional, cell-based; conditions: MOLP-8, 2 h
[2] = molecular target: T1, Induced myeloid leukemia cell differentiation protein Mcl-1 (Homo sapiens, UniProt Q07820); assay: Inhibition of Mcl-1 (unknown origin) by TR-FRET assay
RS4-11 [3] = assay: Cytotoxicity against human RS4:11 cells assessed as reduction in cell viability; type: functional, cell-based
[4] = Antiproliferative activity against human NCI-H2110 cells after 48 hrs by CellTiter-Glo assay; type: functional, cell-based; conditions: NCI-H2110, 48 h
NCI-H23 = assay: Antiproliferative activity against human NCI-H23 cells after 48 hrs by CellTiter-Glo assay; type: functional, cell-based; conditions: NCI-H23, 48 h
[5] = molecular target: T1, Induced myeloid leukemia cell differentiation protein Mcl-1; assay: Inhibition of His6 tagged MBP fused Mcl-1 (unknown origin) after 0.5 hrs by fluorescence polarization assay
Bcl-2-like protein 1 [6] = molecular target: T2, Bcl-2-like protein 1 (Homo sapiens, UniProt Q07817); assay: Inhibition of biotin labelled Bid-BH3 binding to C-terminal GST-tagged human BCL-XL […] expressed in Escherichia coli BL21 (DE3) preincubated for 1 hr followed by followed by biotin labelled Bid-BH3 addition measured after 2 hrs by ELISA
HeLa = assay: Cytotoxicity against human HeLa cells assessed as reduction in cell viability after 72 hrs; type: functional, cell-based
RS4-11 [7] = assay: Cytotoxicity against human RS4:11 cells assessed as reduction in cell viability after 72 hrs; type: functional, cell-based; conditions: RS4-11, 72 h
HL-60 = assay: Induction of apoptosis in human HL60 cells after 48 hrs by Annexin V-FITC staining based flow cytometry; type: functional, cell-based; conditions: HL-60, 48 h
[8] = molecular target: Apoptosis regulator Bcl-2 (Homo sapiens, UniProt P10415); assay: Displacement of FAM labelled Bid-derived peptide from Bcl-2 (unknown origin) incubated for 1 min by fluorescence polarization assay
[9] = molecular target: T1, Induced myeloid leukemia cell differentiation protein Mcl-1; assay: Displacement of FAM labelled Bid-derived peptide from MCL1 (unknown origin) incubated for 1 min by fluorescence polarization assay
[10] = Selectivity ratio of IC50 for human HL60 cells to IC50 for human NCI-H345 cells; type: functional
Homo sapiens = species: Homo sapiens; assay: Selectivity ratio of Ki for Bcl-2 (unknown origin) to Ki for MCL1 (unknown origin)
NCI-H345 = assay: Induction of apoptosis in human NCI-H345 cells after 48 hrs by Annexin V-FITC staining based flow cytometry; type: functional, cell-based; conditions: NCI-H345, 48 h
[11] = molecular target: T1, Induced myeloid leukemia cell differentiation protein Mcl-1; assay: Inhibition of N-terminal 26 residues truncated 5-FAM labelled Bid-BH3 binding to MCL1 (unknown origin) by fluorescence polarization assay
[12] = molecular target: T1, Induced myeloid leukemia cell differentiation protein Mcl-1; assay: Inhibition of FITC-BAK binding to His6 tagged MBP fused recombinant human MCL1 (172 to 327 residues) expressed in Escherichia coli by fluorescence polarization competition assay
A-375 = assay: Growth inhibition of human A375 cells after 48 hrs by CellTiter-Blue assay; type: functional; conditions: A-375, 48 h
[13] = Inhibition of recombinant FITC tagged Bid-BH3 binding to BCL-XL deltaC (unknown origin) expressed in Escherichia coli BL21 (DE3) by fluorescence polarization assay; parameters: species or system Homo sapiens
B-ALL = assay: Cytotoxicity against human B-ALL cells assessed as reduction in cell viability after 24 hrs by CellTiter-Glo luminescent assay; type: functional, cell-based
[14] = molecular target: T1, Induced myeloid leukemia cell differentiation protein Mcl-1; assay: Inhibition of FITC-BAK binding to MCL1 (172 to 327 residues) (unknown origin) by fluorescence polarization assay
[15] = molecular target: T1, Induced myeloid leukemia cell differentiation protein Mcl-1; assay: Inhibition of FAM labelled Bid-BH3 binding to N-terminal GST-tagged human recombinant MCL1 expressed in Escherichia coli […] after 60 mins by TR-FRET assay
MDA-MB-468 = assay: Cytotoxicity against human MDA-MB-468 cells assessed as reduction in cell viability by MTT assay; type: functional, cell-based
Bcl-2-like protein 1 [16] = molecular target: T2, Bcl-2-like protein 1; assay: Inhibition of biotin labelled Bid-BH3 binding to GST-tagged BCL-XL (unknown origin) preincubated for 15 mins followed by biotin labelled Bid-BH3 addition measured after 2 hrs by ELISA
[17] = molecular target: T1, Induced myeloid leukemia cell differentiation protein Mcl-1; assay: Binding affinity to MCL1 (unknown origin) by surface plasma resonance method

T1 sequence (Q07820 whole entry): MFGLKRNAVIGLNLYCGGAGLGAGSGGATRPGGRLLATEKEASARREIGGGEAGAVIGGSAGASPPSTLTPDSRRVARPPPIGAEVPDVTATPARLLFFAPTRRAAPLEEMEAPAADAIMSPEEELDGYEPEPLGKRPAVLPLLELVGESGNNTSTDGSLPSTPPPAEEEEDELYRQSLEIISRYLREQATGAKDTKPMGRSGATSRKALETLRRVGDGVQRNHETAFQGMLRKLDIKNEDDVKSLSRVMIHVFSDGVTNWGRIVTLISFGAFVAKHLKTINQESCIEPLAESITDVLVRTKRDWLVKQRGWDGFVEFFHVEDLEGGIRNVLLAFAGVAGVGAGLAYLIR
T2 sequence (Q07817 whole entry): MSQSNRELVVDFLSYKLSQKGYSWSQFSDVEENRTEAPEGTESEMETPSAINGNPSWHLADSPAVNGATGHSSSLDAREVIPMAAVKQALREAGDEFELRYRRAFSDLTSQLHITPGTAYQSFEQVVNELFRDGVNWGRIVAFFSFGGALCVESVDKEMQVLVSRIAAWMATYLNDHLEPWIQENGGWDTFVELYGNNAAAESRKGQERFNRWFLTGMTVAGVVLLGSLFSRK
Apoptosis regulator Bcl-2, sequence (P10415 whole entry): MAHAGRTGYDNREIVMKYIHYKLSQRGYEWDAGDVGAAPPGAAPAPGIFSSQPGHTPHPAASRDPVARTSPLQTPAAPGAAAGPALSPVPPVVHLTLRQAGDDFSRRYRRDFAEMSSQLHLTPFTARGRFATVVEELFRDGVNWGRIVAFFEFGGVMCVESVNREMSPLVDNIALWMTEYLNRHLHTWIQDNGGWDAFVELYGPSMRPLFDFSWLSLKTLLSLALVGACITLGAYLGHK

EC50 [1]: 0.46 µM
SMILES: Cc1c(-c2cccc3c(CCCOc4cccc5ccccc45)c(C(=O)O)[nH]c23)c(COc2ccc(B(O)O)c(C=O)c2)nn1C

Ki [2]: > 0.444 µM
SMILES: CC1(C)CCC(CN2CCN(c3ccc(C(=O)NS(=O)(=O)c4ccc(NCC5CCOCC5)c([N+](=O)[O-])c4)c(Oc4cnc5[nH]ccc5c4)c3)CC2)=C(c2ccc(Cl)cc2)C1 [VENETOCLAX]
IC50 (RS4-11 [3]): 0.0015 to 0.005 µM

EC50 [1]: 0.35 µM
SMILES: CCc1nn(C)c(CC)c1-c1cccc2c(CCCOc3cccc4ccccc34)c(C(=O)O)n(CCN3CCOCC3)c12

IC50 (HL-60): 63.3 µM
Ki [8]: 3.6 µM
Ki [9]: 0.48 µM
Ratio Ki (Homo sapiens): 7.5
IC50 (NCI-H345): 2.2 µM
SMILES: O=C(O)c1cc2ccccc2n1S(=O)(=O)c1ccc(OCc2cccc(Cl)c2)cc1
Ratio IC50 [10]: 30

Ki [11]: 0.32 µM
SMILES: COc1cc(NC(=O)CCC(=O)N2CCN(Cc3cccc(-c4ccc(Cl)cc4)c3)CC2)cc(OC)c1OC

Ki [12]: 0.12 µM
GI50 (A-375): 50 µM
SMILES: Cc1cc(Oc2ccc(S(=O)(=O)N3CC(C(=O)O)Cc4ccccc43)cc2)cc(C)c1Cl (stereo not drawn)

Ki [14]: 2.9 µM
SMILES: Cc1cc(Oc2ccc(C(=O)O)c(OCc3ccccc3)n2)cc(C)c1Cl

Ki [11]: 0.18 µM
SMILES: COc1cc(CC(=O)NCc2ccc(C(=O)N3CCN(Cc4ccccc4-c4ccccc4)CC3)cc2)cc(OC)c1OC

Continued, compound first:

SMILES: Cc1c(-c2cccc3c(CCCOc4cccc5ccccc45)c(C(=O)O)[nH]c23)c(COc2cccc(C=O)c2)nn1C
EC50 [1]: > 11 µM

SMILES: O=C(O)c1[nH]c2ccccc2c1CCCCC1CCCCC1
EC50 [4]: 5.3 µM
EC50 (NCI-H23): 7.2 µM

SMILES: Cc1cc(OCCCc2c3n(c4c(-c5c(C)nn(C)c5C)c(Cl)ccc24)CCCC(c2cc(C(=O)O)c4ccn(C)c4c2)C3=O)cc(C)c1Cl (stereo not drawn)
Ki [5]: < 0.001 µM

SMILES: Cc1c(-c2cccc3c(CCCOc4cccc5ccccc45)c(C(=O)O)[nH]c23)c(COc2ccccc2)nn1C
EC50 [1]: > 11 µM

SMILES: O=C(c1ccccc1O)c1[nH]c(Cl)c(Cl)c1-n1c(C(=O)c2ccccc2O)cc(Cl)c1Cl
IC50 (Bcl-2-like protein 1 [6]): > 80 µM
IC50 (HeLa): 20 µM
IC50 (RS4-11 [7]): 2 µM

SMILES: CC(=O)c1cccc(OCc2nn(C)c(C)c2-c2cccc3c(CCCOc4cccc5ccccc45)c(C(=O)O)[nH]c23)c1
EC50 [1]: 2.7 µM

SMILES: CC(=O)c1cc(OCc2nn(C)c(C)c2-c2cccc3c(CCCOc4cccc5ccccc45)c(C(=O)O)[nH]c23)ccc1B(O)O
EC50 [1]: 0.17 µM

SMILES: Cc1cs/c(=N\C2CCCCC2)n1/N=C/c1ccc(O)c(O)c1O
IC50 [13]: > 50 µM
IC50 (B-ALL): 4.2 µM

SMILES: Cc1c(-c2cccc3c(CCCOc4cccc5ccccc45)c(C(=O)O)n(C)c23)c(COc2ccc(B(O)O)c(C=O)c2)nn1C
EC50 [1]: 0.075 µM

SMILES: Cc1c(-c2cccc3c(CCCOc4cccc5ccccc45)c(C(=O)O)[nH]c23)c(COc2ccc(B(O)O)cc2)nn1C
EC50 [1]: > 11 µM
IC50 [15]: 0.162 µM

SMILES: O=C(O)CSc1ccc(C(=O)c2[nH]c(Cl)c(Cl)c2-n2c(C(=O)c3ccc(SCC(=O)O)cc3O)cc(Cl)c2Cl)c(O)c1
IC50 (MDA-MB-468): 29 µM
IC50 (Bcl-2-like protein 1 [16]): > 100 µM

SMILES: N#CC1=C(NCCC(=O)O)c2ccc(Sc3ccc(Br)cc3)c3cccc(c23)C1=O
Kd [17]: 0.15 µM
